Values quoted from earlier work, collected in paper PMC8287861 (Frontiers in Microbiology, 2021).
In brackets after ≈: the same amount, converted by molar mass. Read-outs that look alike come from different tables or passages of the source.

Legend:
[1] = system: PAM4175 pUCP24 vector; set-up: method as in Lomovskaya et al. (2020b); conditions: ref Lomovskaya et al. (2020b)
[2] = system: PAM4820 CTX-M-25; set-up: method as in Lomovskaya et al. (2020b); conditions: PAM4820, CTX-M-25, class A; ref Lomovskaya et al. (2020b)
[3] = system: PAM4886 GES-1; set-up: method as in Lomovskaya et al. (2020b); conditions: PAM4886, GES-1, class A; ref Lomovskaya et al. (2020b)
[4] = system: PAM4800 GES-19; set-up: method as in Lomovskaya et al. (2020b); conditions: PAM4800, GES-19, class A; ref Lomovskaya et al. (2020b)
[5] = system: PAM4840 OXY-6-2; set-up: method as in Lomovskaya et al. (2020b); conditions: PAM4840, OXY-6-2, class A; ref Lomovskaya et al. (2020b)
[6] = system: PAM4878 TEM-10; set-up: method as in Lomovskaya et al. (2020b); conditions: PAM4878, TEM-10, class A; ref Lomovskaya et al. (2020b)
[7] = system: PAM4908 VEB-1; set-up: method as in Lomovskaya et al. (2020b); conditions: PAM4908, VEB-1, class A; ref Lomovskaya et al. (2020b)
[8] = system: PAM4910 VEB-2; set-up: method as in Lomovskaya et al. (2020b); conditions: PAM4910, VEB-2, class A; ref Lomovskaya et al. (2020b)
[9] = system: PAM4689 KPC-3; set-up: method as in Lomovskaya et al. (2020b); conditions: PAM4689, KPC-3, class A-CARB; ref Lomovskaya et al. (2020b)
[10] = system: PAM4794 NMC-1; set-up: method as in Lomovskaya et al. (2020b); conditions: PAM4794, NMC-1, class A-CARB; ref Lomovskaya et al. (2020b)
[11] = system: PAM4884 ADC-181; set-up: method as in Lomovskaya et al. (2020b); conditions: PAM4884, ADC-181, class C; ref Lomovskaya et al. (2020b)
[12] = system: PAM4792 OXA-2; set-up: method as in Lomovskaya et al. (2020b); conditions: PAM4792, OXA-2, class D; ref Lomovskaya et al. (2020b)
[13] = system: PAM4846 OXA-9; set-up: method as in Lomovskaya et al. (2020b); conditions: PAM4846, OXA-9, class D; ref Lomovskaya et al. (2020b)
[14] = system: PAM4790 OXA-10; set-up: method as in Lomovskaya et al. (2020b); conditions: PAM4790, OXA-10, class D; ref Lomovskaya et al. (2020b)
[15] = system: PAM4217 OXA-48; set-up: method as in Lomovskaya et al. (2020b); conditions: PAM4217, OXA-48, class D-CARB; ref Lomovskaya et al. (2020b)
[16] = system: PAM4876 OXA-72; set-up: method as in Lomovskaya et al. (2020b); conditions: PAM4876, OXA-72, class D-CARB; ref Lomovskaya et al. (2020b)
[17] = system: PAM4917 NDM-7; set-up: method as in Lomovskaya et al. (2020b); conditions: PAM4917, NDM-7, class B1; ref Lomovskaya et al. (2020b)
[18] = system: PAM4798 VIM-2; set-up: method as in Lomovskaya et al. (2020b); conditions: PAM4798, VIM-2, class B1; ref Lomovskaya et al. (2020b)
[19] = system: PAM4881 VIM-7; set-up: method as in Lomovskaya et al. (2020b); conditions: PAM4881, VIM-7, class B1; ref Lomovskaya et al. (2020b)
[20] = system: PAM4887 IMP-1; set-up: method as in Lomovskaya et al. (2020b); conditions: PAM4887, IMP-1, class B1; ref Lomovskaya et al. (2020b)
[21] = system: PAM4888 IMP-4; set-up: method as in Lomovskaya et al. (2020b); conditions: PAM4888, IMP-4, class B1; ref Lomovskaya et al. (2020b)
[22] = system: PAM4885 SPM-1; set-up: method as in Lomovskaya et al. (2020b); conditions: PAM4885, SPM-1, class B1; ref Lomovskaya et al. (2020b)
[23] = system: PAM4880 L1; set-up: method as in Lomovskaya et al. (2020b); conditions: PAM4880, L1, class B3; ref Lomovskaya et al. (2020b)
[24] = system: PAM4938 VCC-1; set-up: method as in Lomovskaya et al. (2020b); conditions: PAM4938, VCC-1, class A-CARB; ref Lomovskaya et al. (2020b)
[25] = system: Pseudomonas aeruginosa; set-up: method as in Lomovskaya et al. (2021); conditions: ref Lomovskaya et al. (2021); for MIC50 / MIC90: challenge panel, QPX7728 at 8 μg/ml

SMILES	MIC [1] [µg/mL]	MIC [2] [µg/mL]	MIC [3] [µg/mL]	MIC [4] [µg/mL]	MIC [5] [µg/mL]	MIC [6] [µg/mL]	MIC [7] [µg/mL]	MIC [8] [µg/mL]	MIC [9] [µg/mL]	MIC [10] [µg/mL]	MIC [11] [µg/mL]	MIC [12] [µg/mL]	MIC [13] [µg/mL]	MIC [14] [µg/mL]	MIC [15] [µg/mL]	MIC [16] [µg/mL]	MIC [17] [µg/mL]	MIC [18] [µg/mL]	MIC [19] [µg/mL]	MIC [20] [µg/mL]	also measured
CC(C)(O/N=C(\C(=O)N[C@@H]1C(=O)N2C(C(=O)[O-])=C(C[n+]3ccccc3)CS[C@H]12)c1csc(N)n1)C(=O)O [Ceftazidime, ceftazidime]	0.25 (≈ 0.457 µM)	8 (≈ 14.6 µM)	64 (≈ 117 µM)	>64	0.5 (≈ 0.915 µM)	>64	>64	>64	>64	1 (≈ 1.83 µM)	8 (≈ 14.6 µM)	8 (≈ 14.6 µM)	0.25 (≈ 0.457 µM)	0.25 (≈ 0.457 µM)	0.25 (≈ 0.457 µM)	0.25 (≈ 0.457 µM)	>64	16 (≈ 29.3 µM)	0.5 (≈ 0.915 µM)	>64	MIC [21]: >64 µg/mL; MIC [22]: >64 µg/mL; MIC [23]: 64 µg/mL (≈ 117 µM)
CCN1CCN(C(=O)N[C@@H](C(=O)N[C@@H]2C(=O)N3[C@@H]2SC(C)(C)[C@@H]3C(=O)O)c2ccccc2)C(=O)C1=O [Piperacillin, piperacillin]	0.125 (≈ 0.242 µM)	>64	4 (≈ 7.73 µM)	8 (≈ 15.5 µM)	>64	32 (≈ 61.8 µM)	8 (≈ 15.5 µM)	16 (≈ 30.9 µM)	>64	16 (≈ 30.9 µM)	1 (≈ 1.93 µM)	64 (≈ 124 µM)	8 (≈ 15.5 µM)	0.125 (≈ 0.242 µM)	16 (≈ 30.9 µM)	16 (≈ 30.9 µM)	32 (≈ 61.8 µM)	16 (≈ 30.9 µM)	2 (≈ 3.86 µM)	1 (≈ 1.93 µM)	MIC [24]: 16 µg/mL (≈ 30.9 µM); MIC [21]: 0.5 µg/mL (≈ 0.966 µM); MIC [22]: 32 µg/mL (≈ 61.8 µM); MIC [23]: 32 µg/mL (≈ 61.8 µM); % of isolates shifted by QPX7728 at or below breakpoint ([25]; challenge panel (N = 290), with QPX7728, 8 or 16 μg/ml for cefepime and piperacillin, respectively): 70.3%; MIC50 ([25]; All (N = 290)): >64 µg/mL; MIC90 ([25]; All (N = 290)): >64 µg/mL; MIC50 ([25]; MBL (N = 61)): >64 µg/mL; MIC90 ([25]; MBL (N = 61)): >64 µg/mL; MIC50 ([25]; No MBL (N = 229)): >64 µg/mL; MIC90 ([25]; No MBL (N = 229)): >64 µg/mL
